Target: T1, γ-secretase (presenilin-1, PS1) (Mus musculus, UniProt P49769)
T1 construct: gene Psen1; endogenous γ-secretase complex in N2a (NAG) cells, APPGV16 as substrate; with Nicastrin and the other subunits of the heterotetrameric γ-secretase complex
Assay: Gal4-luciferase reporter of γ-secretase cleavage of APPGV16 in stable N2a cells, […] h; CTF accumulation by western blot
Format: cell-based

SMILES: C[C@H](NC(=O)Cc1cc(F)cc(F)c1)C(=O)N[C@H](C(=O)OC(C)(C)C)c1ccccc1 [DAPT]
- IC50: ~1000 nM
